# According to patent US5972894A, “Peptides having potassium channel opener activity” (Cytran, Inc., priority 1997, dated 1999):
# Key:
# ischemic myocardium = assay: Inotropic function and arrhythmias of ischemic isolated rat heart during reperfusion; conditions: for Diastolic Pressure in Ischemic Left Ventricle (% of Preischemic Mean Value) / Evolving Pressure in Ischemic Left Ventricle (% of Preischemic Mean Value) / Heart Rate during Reperfusion (% of Preischemic Mean Value) / Maximal Rate of Increase of Left Ventricle Pressure (% of Preischemic Mean Value) / Maximal Rate of Left Ventricle Pressure Decrease (% of Preischemic Mean Value) / Systolic Pressure in Ischemic Left Ventricle (% of Preischemic Values): 14.0 mg/l
# Description: Rat hearts were surgically isolated from white random-bred rats weighing approximately 250 g. The isolated hearts were perfused with a standard oxygenated (95% O2 and 5% CO2) Krebs-Henseleit solution in a retrograde manner (i.e., according to Langendorff and using a constant perfusate pressure of 80 cm of water). The hearts maintained a steady spontaneous contraction rate. A latex balloon catheter connected to a pressure transducer (EMT-746, Siemens-Elema, Sweden) was inserted into the left ventricle of each heart to measure the inotropic function of the heart (as described in Example 3, above). The left ventricle pressure variation curve was recorded using a polygraph.
# Stage I ("adaptation regimen") consisted of a 30-minute adaptation of the respective rat hearts to the perfusion regimen. The baseline parameters for the inotropic function of each heart were recorded to establish the preischemic values for the following measured parameters: (i) the systolic pressure in the left ventricle (Psyst. mm Hg); (ii) the diastolic pressure in the left ventricle (Pdiast. mm Hg); (iii) the evolving pressure (Pev. =Psyst. -Pdist. mm Hg); (iv) the maximal rate of increase of left ventricle pressure (+dp/dtmax mm Hg/sec); and (v) the maximal rate of decrease of left ventricle pressure (-dp/dtmax mm Hg/sec). In addition, the heart rate (HR) of each heart was determined from the recordings made of the variations in the left ventricle pressure over time. In Stage II ("ischemic simulation"), ischemia was induced in each heart by shutting off the supply of the perfusion solution to the heart. Approximately 30 minutes later, Stage III ("reperfusion regimen") was initiated by restarting the reperfusion and including in the perfusate solution a test or control substance at one of the following respective concentrations: a perfusate solution of a test substance comprised 0.06, 0.6, or 6.0 mg/l GE, or 0.06, 0.6, or 6.0 mg/l VT, respectively; a perfusate solution of the positive control substance comprised 14 mg/l inosine. Inosine is a nucleoside preparation that produces a favorable inotropic effect on both normal and ischemic myocardium while inducing no rhythm disturbances or acceleration of ischemic contracture development. Woollard et al., Cardiovasc. Res. 15: 659-67 (1981). Inosine was obtained from Sigma Chemical Company, USA (Cat. Code I-4125; lot number 81H0227). The negative control substance comprised reperfusion using a standard oxygenated Krebs-Henseleit solution.
# For each heart, the inotropic function of the myocardium was evaluated by measuring the parameters (i) through (v), discussed above, and the heart rate. These six parameters were recorded continuously throughout the study (i.e., beginning with Stage I and continuing through Stage III). The recordings were analyzed at the following times: (a) immediately before beginning Stage II (that is, after the 30-minute Stage I adaptation period, but before stopping perfusion); and (b) at 1, 5, 10, 20, and 30 minutes into the Stage III reperfusion.
# The frequency and duration of rhythm disturbances in the 30-minute Stage III reperfusion period were determined by measuring the following parameters: (i) the number of ventricular extrasystoles; (ii) the overall duration of ventricular tachycardias (in seconds); and (iii) the overall duration of ventricular fibrillation (in seconds). Each dose of the test substance was tested on nine isolated hearts.
# Isolated Rat Heart = assay: Inotropic function of normal isolated rat heart, Langendorff perfusion; conditions: dose 0.01 mg
# Description: Rat heart specimens were obtained surgically from white random-bred male rats weighing approximately 250 g. The hearts were established in culture using retrograde heart perfusion according to the Langendorff method performed with a standard oxygenated (95% O2 and 5% CO2) Krebs-Henseleit solution through a glass aorta cannula. The retroperfusion pressure forces the aortic valves shut. In this way, the oxygenated solution passed only through the coronary vasculature of the heart such that both ventricles remain effectively empty. Perfusion conditions: An average constant perfusate flow rate of 15 to 25 ml/min was maintained with a constant perfusate pressure of 80 cm H2 O. Pressure Measurements: A latex balloon catheter connected with a pressure transducer ([…], Sweden) was inserted into the left ventricle of the heart to measure parameters of the inotropic function of the heart. The intraventricle pressure variation curve for the left ventricle was recorded with a polygraph. Experimental Protocol: GE and VT served as the test substances. After a 30-minute adaptation of the heart to the organ culture perfusion conditions, a set of basal (control) measurements was taken, as described in (i) through (v) below. […] See GOODMAN […] THE PHARMACOLOGICAL BASIS OF THERAPEUTICS 160 (Goodman et al., eds., 7th ed. 1985), incorporated herein by reference in its entirety for all purposes. Each dose of each respective test or reference substance was tested on four different rat hearts. The inotropic functions of each of the four rat hearts were evaluated by measuring: (i) the systolic pressure in the left ventricle ([…] diastolic pressure in the left ventricle ([…] evolving pressure (Pev. =[…]); (iv) the maximal rate of increase of left ventricle pressure (+dp/dtmax mm Hg/sec); and (v) the maximal rate of decrease of left ventricle pressure (-dp/dtmax mm Hg/sec). In addition, the heart rate (HR) of each heart was determined from the pressure variation recordings made of the left ventricle pressure.
# rats = assay: Arterial blood pressure in anesthetized rats; type: in vivo; conditions: 5 mg/kg i.v.
# Method: White random-bred male rats weighing approximately 200 g were employed for this study. Each dose of each respective test or control substance was administered to a group of five rats. GE and VT were employed as test substances and were administered intravenously at doses of 0.01, 0.1, 1.0, and 10.0 mg/kg. Physiological saline (0.2 ml) served as the negative control substance. The ganglionic blocking agent, pentamine, served as the positive control substance and was tested at a dose of 5 mg/kg. Following administration of the test substance, positive control substance, or negative control substance, the arterial blood pressure of each animal was monitored.
# Prior to administration of the test or control substance, each animal was anesthetized with Chloralose and then both its carotid artery and jugular vein were catheterized. The carotid catheter was connected to an electronic manometer attached to a computer recorder through an analog-to-digital converter. The mean basal level of the arterial blood pressure was determined as follows: For a period of 30 seconds, the digital signal pertaining to the arterial blood pressure was recorded at 1-second intervals. The mean value of these thirty individual measurements was then determined and recorded.
# After determining the mean basal level of the arterial blood pressure, a particular dose of the test or control substance was administered in a volume of 0.2 ml of physiological saline to an animal through the jugular venous catheter. Measurements of the arterial blood pressure were then taken during the next 1.5 hours as follows: (i) during the first 5 minutes, the arterial blood pressure was being monitored continuously and mean values were calculated electronically and recorded at each of the ten different 30-second intervals (i.e., 30th second, 60th second, etc.); (ii) thereafter, mean values of the arterial blood pressure were calculated at the first seconds of 10th minute, 15th minute, 30th minute, 45th minute, 60th minute, 75th minute, and 90th minute after administration of the respective test or control substance.
# [1] = 14.1 mg/l, 30-minute reperfusion
compound,measurement,setting,value
"OC[C@H]1O[C@@H](n2cnc3c(O)ncnc32)[C@H](O)[C@@H]1O [Inosine, reference compound]",Diastolic Pressure in Ischemic Left Ventricle (% of Preischemic Mean Value),ischemic myocardium; 1 min reperfusion,92.35%
same,Evolving Pressure in Ischemic Left Ventricle (% of Preischemic Mean Value),ischemic myocardium; 1 min reperfusion,57.13%
same,Heart Rate during Reperfusion (% of Preischemic Mean Value),ischemic myocardium; 1 min reperfusion,45.37%
same,Maximal Rate of Increase of Left Ventricle Pressure (% of Preischemic Mean Value),ischemic myocardium; 1 min reperfusion,50.85%
same,Maximal Rate of Left Ventricle Pressure Decrease (% of Preischemic Mean Value),ischemic myocardium; 1 min reperfusion,41.91%
same,Systolic Pressure in Ischemic Left Ventricle (% of Preischemic Values),ischemic myocardium; 1 min reperfusion,62.15%
same,Diastolic Pressure in Ischemic Left Ventricle (% of Preischemic Mean Value),ischemic myocardium; 5 min reperfusion,111.83%
same,Evolving Pressure in Ischemic Left Ventricle (% of Preischemic Mean Value),ischemic myocardium; 5 min reperfusion,57.59%
same,Heart Rate during Reperfusion (% of Preischemic Mean Value),ischemic myocardium; 5 min reperfusion,69.97%
same,Maximal Rate of Increase of Left Ventricle Pressure (% of Preischemic Mean Value),ischemic myocardium; 5 min reperfusion,54.25%
same,Maximal Rate of Left Ventricle Pressure Decrease (% of Preischemic Mean Value),ischemic myocardium; 5 min reperfusion,65.94%
same,Systolic Pressure in Ischemic Left Ventricle (% of Preischemic Values),ischemic myocardium; 5 min reperfusion,66.17%
same,Diastolic Pressure in Ischemic Left Ventricle (% of Preischemic Mean Value),ischemic myocardium; 10 min reperfusion,139.32%
same,Evolving Pressure in Ischemic Left Ventricle (% of Preischemic Mean Value),ischemic myocardium; 10 min reperfusion,82.33%
same,Heart Rate during Reperfusion (% of Preischemic Mean Value),ischemic myocardium; 10 min reperfusion,67.52%
same,Maximal Rate of Increase of Left Ventricle Pressure (% of Preischemic Mean Value),ischemic myocardium; 10 min reperfusion,82.35%
same,Maximal Rate of Left Ventricle Pressure Decrease (% of Preischemic Mean Value),ischemic myocardium; 10 min reperfusion,78.85%
same,Systolic Pressure in Ischemic Left Ventricle (% of Preischemic Values),ischemic myocardium; 10 min reperfusion,86.05%
same,Diastolic Pressure in Ischemic Left Ventricle (% of Preischemic Mean Value),ischemic myocardium; 20 min reperfusion,148.63%
same,Evolving Pressure in Ischemic Left Ventricle (% of Preischemic Mean Value),ischemic myocardium; 20 min reperfusion,94.19%
same,Heart Rate during Reperfusion (% of Preischemic Mean Value),ischemic myocardium; 20 min reperfusion,79.97%
same,Maximal Rate of Increase of Left Ventricle Pressure (% of Preischemic Mean Value),ischemic myocardium; 20 min reperfusion,83.58%
same,Maximal Rate of Left Ventricle Pressure Decrease (% of Preischemic Mean Value),ischemic myocardium; 20 min reperfusion,91.83%
same,Systolic Pressure in Ischemic Left Ventricle (% of Preischemic Values),ischemic myocardium; 20 min reperfusion,99.29%
same,Diastolic Pressure in Ischemic Left Ventricle (% of Preischemic Mean Value),ischemic myocardium; 30 min reperfusion,149.42%
same,Evolving Pressure in Ischemic Left Ventricle (% of Preischemic Mean Value),ischemic myocardium; 30 min reperfusion,91.68%
same,Heart Rate during Reperfusion (% of Preischemic Mean Value),ischemic myocardium; 30 min reperfusion,75.60%
same,Maximal Rate of Increase of Left Ventricle Pressure (% of Preischemic Mean Value),ischemic myocardium; 30 min reperfusion,77.85%
same,Maximal Rate of Left Ventricle Pressure Decrease (% of Preischemic Mean Value),ischemic myocardium; 30 min reperfusion,93.88%
same,Systolic Pressure in Ischemic Left Ventricle (% of Preischemic Values),ischemic myocardium; 30 min reperfusion,96.62%
same,"-dp/dtmax, % of preischemic value","ischemic myocardium; 14 mg/l, after approximately 10 to 20 minutes",about 80%
same,Number of Ventricular Extrasystoles,ischemic myocardium; [1],230.4
same,Overall Duration of Ventricular Fibrillation,ischemic myocardium; [1],52.9 s
same,Overall Duration of Ventricular Tachycardia,ischemic myocardium; [1],1.3 s
"CC(C)NCC(O)c1ccc(O)c(O)c1 (stereo not drawn) [Isoproterenol, isoproterenol, reference compound]",+dp/dtmax % of Basal Level,Isolated Rat Heart,122%
same,+dp/dtmax Subst. Level,Isolated Rat Heart,2110 mm Hg/sec
same,-dp/dtmax % of Basal Level,Isolated Rat Heart,112%
same,-dp/dtmax Subst. Level,Isolated Rat Heart,1140 mm Hg/sec
same,HR % of Basal Level,Isolated Rat Heart,133%
same,"HR abs, Subst. Level",Isolated Rat Heart,255 hb/min
same,Pdiast % of Basal Level,Isolated Rat Heart,120%
same,"Pdiast abs, Subst. Level",Isolated Rat Heart,12 mm Hg
same,Pev % of Basal Level,Isolated Rat Heart,118%
same,Pev Subst. Level,Isolated Rat Heart,108 mm Hg
same,Psyst % of Basal Level,Isolated Rat Heart,117%
"CC[N+](C)(C)CCN(C)CC[N+](C)(C)CC [Pentamine, pentamine, reference compound]",Arterial Blood Pressure (Basal Level = 100.00),rats; 1 min,87.09%
same,Arterial Blood Pressure (Basal Level = 100.00),rats; 2 min,68.18%
same,Arterial Blood Pressure (Basal Level = 100.00),rats; 3 min,70.82%
same,Arterial Blood Pressure (Basal Level = 100.00),rats; 4 min,69.29%
same,Arterial Blood Pressure (Basal Level = 100.00),rats; 5 min,74.11%
same,Arterial Blood Pressure (Basal Level = 100.00),rats; 10 min,91.63%
same,Arterial Blood Pressure (Basal Level = 100.00),rats; 15 min,89.94%
same,Arterial Blood Pressure (Basal Level = 100.00),rats; 30 min,86.95%
same,Arterial Blood Pressure (Basal Level = 100.00),rats; 45 min,93.89%
same,Arterial Blood Pressure (Basal Level = 100.00),rats; 60 min,100.31%
same,Arterial Blood Pressure (Basal Level = 100.00),rats; 75 min,94.38%
same,Arterial Blood Pressure (Basal Level = 100.00),rats; 90 min,93.22%
